The term IC50 denotes the concentration at which inhibition is half-maximal. Read a high IC50 as weaker potency in that assay.

In BindingDB's records for doi:10.1016/j.ejmech.2023.115180 (Damanhour University, 2023) one finds IC50 data, which are given here for 2 molecules.

A short description of the assay: Inhibition of LOX (unknown origin) using arachidonic/linoleic acid as substrate preincubated for 5 mins followed by substrate addition measured after 10 mins by absorbance based assay.

Molecule `Nc1c(C(=O)N/N=C/c2cccs2)cnn1-c1ccc(S(N)(=O)=O)cc1` displayed a 50% inhibitory concentration (IC50) of 2.5 µM.

With `Nc1c(C(=O)N/N=C/c2ccccc2)cnn1-c1ccc(S(N)(=O)=O)cc1`, the IC50 worked out at 2.4 µM.
